Results: ChEMBL document CHEMBL3407464, “Novel 5-HT6 receptor antagonists/D2 receptor partial agonists targeting behavioral and psychological symptoms of dementia” (Eur J Med Chem, 2015)
Each block holds one compound with its values, some of them ahead of it.

Legend:
D(2) dopamine receptor [1] = target: T1, D(2) dopamine receptor (Homo sapiens, UniProt P14416); assay: Agonist activity at human dopamine D2 receptor expressed in CHOK1 cells assessed as calcium mobilization at 1 uM by radiometric and luminescence plate counting method; assay type: functional, cell-based; conditions: CHO-K1
hERG (KCNH2) = hERG (KCNH2) (Homo sapiens, UniProt Q12809); assay: Inhibition of human ERG expressed in CHO cells assessed as reduction in channel current at holding potential of 0 mV at 1 uM by electrophysiological method; assay type: cell-based; conditions: CHO cells expressing human ERG
D(2) dopamine receptor [2] = target: T1, D(2) dopamine receptor; assay: Antagonist activity at human dopamine D2 receptor expressed in CHOK1 cells assessed as inhibition of apomorphine-induced calcium mobilization at 1 uM by radiometric and luminescence plate counting method; assay type: functional, cell-based; conditions: CHO-K1
D(2) dopamine receptor [3] = target: T1, D(2) dopamine receptor; assay: biochemical
[4] = target: T2, Muscarinic acetylcholine receptor M1 (Homo sapiens) (UniProt P11229); assay: Inhibition of muscarinic M1 receptor (unknown origin) assessed as reduction in control ligand binding at 1 uM
T2 sequence (whole entry): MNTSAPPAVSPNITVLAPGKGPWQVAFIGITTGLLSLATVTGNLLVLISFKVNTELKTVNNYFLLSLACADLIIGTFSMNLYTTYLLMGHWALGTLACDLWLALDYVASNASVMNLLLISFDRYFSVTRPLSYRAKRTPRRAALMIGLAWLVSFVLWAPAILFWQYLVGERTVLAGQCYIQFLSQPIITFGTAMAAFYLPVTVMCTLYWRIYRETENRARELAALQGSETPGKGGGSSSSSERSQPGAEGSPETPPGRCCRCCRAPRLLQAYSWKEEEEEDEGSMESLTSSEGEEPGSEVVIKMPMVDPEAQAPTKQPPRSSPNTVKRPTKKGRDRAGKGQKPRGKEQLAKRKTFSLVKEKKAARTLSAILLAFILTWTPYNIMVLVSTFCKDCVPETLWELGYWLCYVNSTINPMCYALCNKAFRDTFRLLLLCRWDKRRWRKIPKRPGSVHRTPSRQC

[5] = target: T3, 5-hydroxytryptamine receptor 6 (Homo sapiens, UniProt P50406); assay: Agonist activity at human 5-HT6 receptor expressed in CHOK1 cells assessed as calcium mobilization at 1 uM by radiometric and luminescence plate counting method; assay type: functional, cell-based; conditions: CHO-K1
[6] = target: T3, 5-hydroxytryptamine receptor 6; assay: biochemical
Rattus norvegicus [7] = assay: Anxiolytic activity in intraperitoneally dosed 3-months old Wistar rat by Vogel's conflict drinking test; assay type: functional; conditions: ip, read-out: MED
Rattus norvegicus [8] = assay: Anti-depressant-like activity in intraperitoneally dosed 3-months old Wistar rat by Porsolt's forced swim test; assay type: functional; conditions: ip, read-out: MED

hERG (KCNH2), sequence (Q12809 whole entry): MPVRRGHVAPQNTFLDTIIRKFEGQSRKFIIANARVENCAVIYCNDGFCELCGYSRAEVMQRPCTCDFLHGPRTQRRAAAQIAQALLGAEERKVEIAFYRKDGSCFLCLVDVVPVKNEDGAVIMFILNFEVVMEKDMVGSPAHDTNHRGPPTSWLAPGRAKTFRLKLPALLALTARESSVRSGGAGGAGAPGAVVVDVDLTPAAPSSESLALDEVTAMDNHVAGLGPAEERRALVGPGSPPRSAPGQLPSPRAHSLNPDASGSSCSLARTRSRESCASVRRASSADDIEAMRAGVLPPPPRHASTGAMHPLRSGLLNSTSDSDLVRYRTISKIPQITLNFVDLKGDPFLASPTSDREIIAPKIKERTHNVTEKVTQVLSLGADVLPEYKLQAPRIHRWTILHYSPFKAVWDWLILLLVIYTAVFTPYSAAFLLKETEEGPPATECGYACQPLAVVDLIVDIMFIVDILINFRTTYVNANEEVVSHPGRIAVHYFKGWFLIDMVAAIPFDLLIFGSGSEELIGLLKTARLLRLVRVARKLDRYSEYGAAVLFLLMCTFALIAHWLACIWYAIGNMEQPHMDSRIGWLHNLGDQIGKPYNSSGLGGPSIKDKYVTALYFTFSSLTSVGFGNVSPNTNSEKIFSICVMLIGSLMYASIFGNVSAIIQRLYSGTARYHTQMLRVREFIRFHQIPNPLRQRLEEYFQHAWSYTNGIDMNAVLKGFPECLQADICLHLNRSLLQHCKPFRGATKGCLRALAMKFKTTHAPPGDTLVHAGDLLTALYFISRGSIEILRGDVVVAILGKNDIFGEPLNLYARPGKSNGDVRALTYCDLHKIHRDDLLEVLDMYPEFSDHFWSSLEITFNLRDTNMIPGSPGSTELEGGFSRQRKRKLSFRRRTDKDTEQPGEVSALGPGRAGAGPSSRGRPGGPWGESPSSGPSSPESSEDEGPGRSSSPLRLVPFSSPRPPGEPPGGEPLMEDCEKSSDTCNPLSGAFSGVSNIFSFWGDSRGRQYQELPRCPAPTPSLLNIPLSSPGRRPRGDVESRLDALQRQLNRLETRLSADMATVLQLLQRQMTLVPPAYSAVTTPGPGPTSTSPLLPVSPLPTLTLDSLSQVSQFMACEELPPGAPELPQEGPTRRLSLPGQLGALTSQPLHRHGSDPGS
T1 sequence (P14416 whole entry): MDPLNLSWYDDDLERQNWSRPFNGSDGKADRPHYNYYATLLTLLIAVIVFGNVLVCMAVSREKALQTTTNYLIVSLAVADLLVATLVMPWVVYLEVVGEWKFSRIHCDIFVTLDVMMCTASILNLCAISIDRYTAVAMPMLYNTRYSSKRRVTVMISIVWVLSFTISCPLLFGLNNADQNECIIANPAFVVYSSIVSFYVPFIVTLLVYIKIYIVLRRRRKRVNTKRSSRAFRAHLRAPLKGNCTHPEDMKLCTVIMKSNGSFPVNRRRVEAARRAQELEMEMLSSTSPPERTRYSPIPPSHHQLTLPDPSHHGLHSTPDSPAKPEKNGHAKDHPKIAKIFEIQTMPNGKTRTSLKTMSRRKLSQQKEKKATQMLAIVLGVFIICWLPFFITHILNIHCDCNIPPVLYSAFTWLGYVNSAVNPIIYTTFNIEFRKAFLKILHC
T3 sequence (P50406 whole entry): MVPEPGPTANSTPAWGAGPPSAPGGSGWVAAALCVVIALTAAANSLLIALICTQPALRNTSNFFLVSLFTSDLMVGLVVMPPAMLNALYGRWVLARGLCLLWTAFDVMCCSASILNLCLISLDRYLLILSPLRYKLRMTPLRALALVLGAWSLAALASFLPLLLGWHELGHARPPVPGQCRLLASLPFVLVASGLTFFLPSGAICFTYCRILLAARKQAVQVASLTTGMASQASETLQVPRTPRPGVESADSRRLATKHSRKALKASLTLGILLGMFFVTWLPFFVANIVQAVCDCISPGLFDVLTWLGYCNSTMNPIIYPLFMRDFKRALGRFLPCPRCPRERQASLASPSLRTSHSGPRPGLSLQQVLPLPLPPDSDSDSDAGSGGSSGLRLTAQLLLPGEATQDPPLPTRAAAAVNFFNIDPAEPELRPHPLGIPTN

SMILES: O=C1CCc2ccc(OCCCCN3CCN(c4cccc5c4ccn5Cc4ccccc4)CC3)cc2N1
- inhibition (D(2) dopamine receptor [1]): 42%
- inhibition at 1 µM (hERG (KCNH2)): 14%
- inhibition (D(2) dopamine receptor [2]): 97%
- Ki (D(2) dopamine receptor [3]): 0.02 µM
- inhibition [4]: 99%
- inhibition [5]: 0%
- Ki [6]: 0.013 µM

SMILES: O=C1CCc2ccc(OCCCCNCCc3cn(S(=O)(=O)c4ccccc4)c4ccccc34)cc2N1
- Ki (D(2) dopamine receptor [3]): 0.12 µM
- Ki [6]: 0.052 µM

SMILES: NC(=O)c1ccccc1OCCCN1CCC(c2cn(S(=O)(=O)c3ccccc3)c3ccccc23)CC1
- Ki (D(2) dopamine receptor [3]): 0.062 µM
- Ki [6]: 0.057 µM

SMILES: NC(=O)c1ccccc1OCCCN1CCN(c2cccc3c2ccn3Cc2ccccc2F)CC1
- Ki [6]: 0.023 µM

SMILES: O=C1CCc2ccc(OCCCCN3CCN(c4cccc5c4ccn5Cc4cccc(Cl)c4)CC3)cc2N1
- inhibition (D(2) dopamine receptor [1]): 37%
- inhibition at 1 µM (hERG (KCNH2)): 9%
- inhibition (D(2) dopamine receptor [2]): 99%
- inhibition [4]: 78%
- inhibition [5]: 0%

SMILES: O=C1CCc2ccc(OCCCCN3CCC(c4cn(Cc5ccccc5)c5ccccc45)CC3)cc2N1
- Ki (D(2) dopamine receptor [3]): 0.0048 µM
- Ki [6]: 0.15 µM

SMILES: O=C1CCc2ccc(OCCCCN3CC=C(c4cn(Cc5ccccc5)c5ccccc45)CC3)cc2N1
- Ki (D(2) dopamine receptor [3]): 0.073 µM
- Ki [6]: 0.022 µM

SMILES: NC(=O)c1ccccc1OCCCN1CCN(c2cccc3c2ccn3Cc2ccc(F)cc2)CC1
- Ki (D(2) dopamine receptor [3]): 0.044 µM
- Ki [6]: 0.083 µM

SMILES: O=C1CCc2ccc(OCCCCN3CCN(c4cccc5c4ccn5Cc4cccc(F)c4)CC3)cc2N1
- inhibition (D(2) dopamine receptor [1]): 39%
- inhibition at 1 µM (hERG (KCNH2)): 18%
- inhibition (D(2) dopamine receptor [2]): 99%
- Ki (D(2) dopamine receptor [3]): 0.0061 µM
- inhibition [4]: 94%
- inhibition [5]: 0%
- Ki [6]: 0.02 µM

SMILES: NC(=O)c1ccccc1OCCCN1CC=C(c2cn(S(=O)(=O)c3ccccc3)c3ccccc23)CC1
- Ki (D(2) dopamine receptor [3]): 0.16 µM
- Ki [6]: 0.033 µM

SMILES: NC(=O)c1ccccc1OCCCN1CCC(c2cn(Cc3ccccc3)c3ccccc23)CC1
- Ki (D(2) dopamine receptor [3]): 0.029 µM
- Ki [6]: 0.49 µM

SMILES: NC(=O)c1ccccc1OCCCN1CCN(c2cccc3c2ccn3Cc2ccccc2)CC1
- Ki (D(2) dopamine receptor [3]): 0.095 µM
- Ki [6]: 0.024 µM

SMILES: COc1ccc(NS(=O)(=O)c2sc3ccc(Cl)cc3c2C)cc1N1CCNCC1
- minimal effective dose (Rattus norvegicus [7]): 3 mg/kg
- minimal effective dose (Rattus norvegicus [8]): 10 mg/kg

SMILES: O=C1CCc2ccc(OCCCCNCCc3cn(Cc4ccccc4)c4ccccc34)cc2N1
- Ki (D(2) dopamine receptor [3]): 0.07 µM
- Ki [6]: 0.15 µM

SMILES: NC(=O)c1ccccc1OCCCNCCc1cn(S(=O)(=O)c2ccccc2)c2ccccc12
- Ki (D(2) dopamine receptor [3]): 0.18 µM
- Ki [6]: 0.062 µM

SMILES: O=C1CCc2ccc(OCCCCN3CCN(c4cccc5c4ccn5Cc4ccccc4F)CC3)cc2N1
- Ki (D(2) dopamine receptor [3]): 0.011 µM
- Ki [6]: 0.045 µM

SMILES: O=C1CCc2ccc(OCCCCN3CCN(c4cccc5c4ccn5Cc4ccc(F)cc4)CC3)cc2N1
- Ki (D(2) dopamine receptor [3]): 0.012 µM
- Ki [6]: 0.1 µM

SMILES: NC(=O)c1ccccc1OCCCNCCc1cn(Cc2ccccc2)c2ccccc12
- Ki (D(2) dopamine receptor [3]): 0.27 µM
- Ki [6]: 0.68 µM

SMILES: NC(=O)c1ccccc1OCCCN1CC=C(c2cn(Cc3ccccc3)c3ccccc23)CC1
- Ki (D(2) dopamine receptor [3]): 0.031 µM
- Ki [6]: 0.59 µM

SMILES: O=C1CCc2ccc(OCCCCN3CCC(c4cn(S(=O)(=O)c5ccccc5)c5ccccc45)CC3)cc2N1
- Ki (D(2) dopamine receptor [3]): 0.014 µM
- Ki [6]: 0.14 µM

SMILES: O=S(=O)(c1ccccc1)n1ccc2c(N3CCN(CCCCOc4ccccc4)CC3)cccc21
- Ki (D(2) dopamine receptor [3]): 0.062 µM
- Ki [6]: 0.016 µM

SMILES: O=C1CCc2ccc(OCCCCN3CC=C(c4cn(S(=O)(=O)c5ccccc5)c5ccccc45)CC3)cc2N1
- Ki (D(2) dopamine receptor [3]): 0.04 µM
- Ki [6]: 0.052 µM

Continued by falling Ki [6], values first:

- Ki (D(2) dopamine receptor [3]): 0.076 µM
- Ki [6]: 0.0126 µM
SMILES: NC(=O)c1ccccc1OCCCN1CCN(c2cccc3c2ccn3Cc2cccc(Cl)c2)CC1

- Ki (D(2) dopamine receptor [3]): 0.12 µM
- Ki [6]: 0.011 µM
SMILES: CC(C)Oc1ccccc1OCCCCN1CCN(c2cccc3c2ccn3S(=O)(=O)c2ccccc2)CC1

- Ki (D(2) dopamine receptor [3]): 0.045 µM
- Ki [6]: 0.0099 µM
SMILES: NC(=O)c1ccccc1OCCCN1CCN(c2cccc3c2ccn3Cc2cccc(F)c2)CC1

- Ki (D(2) dopamine receptor [3]): 0.29 µM
- Ki [6]: 0.0076 µM
SMILES: O=S(=O)(c1ccccc1)n1ccc2c(N3CCN(CCCOc4ccccc4)CC3)cccc21

- Ki (D(2) dopamine receptor [3]): 0.047 µM
- Ki [6]: 0.0069 µM
SMILES: O=S(=O)(c1ccccc1)n1ccc2c(N3CCN(CCCCOc4ccc(F)cc4)CC3)cccc21

- Ki (D(2) dopamine receptor [3]): 0.067 µM
- Ki [6]: 0.0054 µM
SMILES: O=S(=O)(c1ccccc1)n1ccc2c(N3CCN(CCCOc4ccc(F)cc4)CC3)cccc21

- Ki (D(2) dopamine receptor [3]): 0.22 µM
- Ki [6]: 0.0038 µM
SMILES: O=S(=O)(c1ccccc1)n1ccc2c(N3CCN(CCCOc4ccc5ccoc5c4)CC3)cccc21

- Ki (D(2) dopamine receptor [3]): 0.078 µM
- Ki [6]: 0.0028 µM
SMILES: NC(=O)c1ccccc1OCCCCN1CCN(c2cccc3c2ccn3S(=O)(=O)c2ccccc2)CC1

- Ki (D(2) dopamine receptor [3]): 0.023 µM
- Ki [6]: 0.0023 µM
SMILES: O=C1CCc2ccc(OCCCN3CCN(c4cccc5c4ccn5S(=O)(=O)c4ccccc4)CC3)cc2N1

- Ki (D(2) dopamine receptor [3]): 0.11 µM
- Ki [6]: 0.0017 µM
SMILES: CC(C)Oc1ccccc1OCCCN1CCN(c2cccc3c2ccn3S(=O)(=O)c2ccccc2)CC1

- inhibition (D(2) dopamine receptor [1]): 48%
- inhibition (D(2) dopamine receptor [2]): 100%
- inhibition [4]: 37%
- inhibition [5]: 0%
- Ki [6]: 0.0004 µM
SMILES: O=C1CCc2ccc(OCCCCN3CCN(c4cccc5c4ccn5S(=O)(=O)c4ccccc4)CC3)cc2N1
- inhibition at 1 µM (hERG (KCNH2)): 13%
